From publication PMC5615155 (Toxicology Reports, 2017)

Tests used:
[1] = single-dose pharmacokinetics and oral bioavailability; format: in vivo, Sprague-Dawley rats; details: for AUClast / Cmax: S2218 in plasma
solubility / dissolution = format: physicochemical
[2] = toxicokinetics in 13-week dietary study; format: in vivo, Sprague-Dawley rats; details: for bioavailability of S8069 in 13-week study: male and female, range
[3] = S8069 oral gavage, 7.83 mg/kg bw S2218 equiv., F
[4] = S8069 oral gavage, 7.83 mg/kg bw S2218 equiv., M
[5] = S8069 oral gavage, 78.3 mg/kg bw S2218 equiv., F
[6] = S8069 oral gavage, 78.3 mg/kg bw S2218 equiv., M
[7] = Day 7, 140 mg/kg bw diet, M + F
[8] = Day 91, 30 mg/kg bw diet, M + F
[9] = Day 91, 70 mg/kg bw diet, M + F
[10] = Day 91, 140 mg/kg bw diet, M + F

**Q.** Which results are given for `Cc1cc(C(=O)NC(C)(C)COc2cccc3c2C(N)=NS(=O)(=O)N3)cc(C)n1.O=S(=O)(O)O` [S8069]?
**A.** %F [1, 3]: 0.77%; Tmax [1, 3]: 0.250 ± 0.0 h; t1/2 [1, 3]: 1.15 ± 0.353 h; AUClast [1, 3]: 26.4 ± 14.3 ng·h/mL; Cmax [1, 3]: 24.4 ± 10.1 ng/mL; %F [1, 4]: 0.60%; Tmax [1, 4]: 0.313 ± 0.125 h; t1/2 [1, 4]: 0.786 ± 0.110 h; AUClast [1, 4]: 23.6 ± 5.26 ng·h/mL; Cmax [1, 4]: 21.4 ± 1.54 ng/mL; %F [1, 5]: 0.29%; Tmax [1, 5]: 0.250 ± 0.0 h; t1/2 [1, 5]: 0.969 ± 0.315 h; AUClast [1, 5]: 99.1 ± 23.2 ng·h/mL; Cmax [1, 5]: 106 ± 39.7 ng/mL; %F [1, 6]: 0.14%; Tmax [1, 6]: 0.250 ± 0.0 h; t1/2 [1, 6]: 0.860 ± 0.340 h; AUClast [1, 6]: 55.6 ± 17.8 ng·h/mL; Cmax [1, 6]: 60.5 ± 16.9 ng/mL; %F ([1]; oral, both test articles, male and female rats, all doses): 0.14–0.77%; solubility in water (solubility / dissolution): very soluble in water; state in 1% methylcellulose dosing formulation (solubility / dissolution; S8069 at 10 mg/mL, S2218 at all dose levels): completely dissolved; ACUM Ratio (dose-normalized AUC0-24h Day 91/Day 7) ([2]; 30 mg/kg bw, F): 1.35; ACUM Ratio (dose-normalized AUC0-24h Day 91/Day 7) ([2]; 30 mg/kg bw, M): 2.86; ACUM Ratio (dose-normalized AUC0-24h Day 91/Day 7) ([2]; 30 mg/kg bw, M + F): 1.88; ACUM Ratio (dose-normalized AUC0-24h Day 91/Day 7) ([2]; 70 mg/kg bw, F): 0.821; ACUM Ratio (dose-normalized AUC0-24h Day 91/Day 7) ([2]; 70 mg/kg bw, M): 1.07; ACUM Ratio (dose-normalized AUC0-24h Day 91/Day 7) ([2]; 70 mg/kg bw, M + F): 0.954; ACUM Ratio (dose-normalized AUC0-24h Day 91/Day 7) ([2]; 140 mg/kg bw, F): 0.768; ACUM Ratio (dose-normalized AUC0-24h Day 91/Day 7) ([2]; 140 mg/kg bw, M): 4.55; ACUM Ratio (dose-normalized AUC0-24h Day 91/Day 7) ([2]; 140 mg/kg bw, M + F): 2.30; F:M Ratio (AUC0-24h/Dose) ([2]; Day 7, 30 mg/kg bw): 1.75; AUC0-24h ([2]; Day 7, 30 mg/kg bw diet, F): 253 ng·h/mL; AUC0-24h/Dose ([2]; Day 7, 30 mg/kg bw diet, F): 9.10 ng·h/mL/mg/kg; Cmax ([2]; Day 7, 30 mg/kg bw diet, F): 20.1 ng/mL; Cmax/Dose ([2]; Day 7, 30 mg/kg bw diet, F): 0.723 ng/mL/mg/kg; Tmax ([2]; Day 7, 30 mg/kg bw diet, F): 3 h; AUC0-24h ([2]; Day 7, 30 mg/kg bw diet, M): 134 ng·h/mL; AUC0-24h/Dose ([2]; Day 7, 30 mg/kg bw diet, M): 5.19 ng·h/mL/mg/kg; Cmax ([2]; Day 7, 30 mg/kg bw diet, M): 14.0 ng/mL; Cmax/Dose ([2]; Day 7, 30 mg/kg bw diet, M): 0.543 ng/mL/mg/kg; Tmax ([2]; Day 7, 30 mg/kg bw diet, M): 1 h; AUC0-24h ([2]; Day 7, 30 mg/kg bw diet, M + F): 194 ng·h/mL; AUC0-24h/Dose ([2]; Day 7, 30 mg/kg bw diet, M + F): 7.24 ng·h/mL/mg/kg; Cmax ([2]; Day 7, 30 mg/kg bw diet, M + F): 11.1 ng/mL; Cmax/Dose ([2]; Day 7, 30 mg/kg bw diet, M + F): 0.414 ng/mL/mg/kg; Tmax ([2]; Day 7, 30 mg/kg bw diet, M + F): 3 h; F:M Ratio (AUC0-24h/Dose) ([2]; Day 7, 70 mg/kg bw): 0.914; AUC0-24h ([2]; Day 7, 70 mg/kg bw diet, F): 610 ng·h/mL; AUC0-24h/Dose ([2]; Day 7, 70 mg/kg bw diet, F): 9.33 ng·h/mL/mg/kg; Cmax ([2]; Day 7, 70 mg/kg bw diet, F): 44.4 ng/mL; Cmax/Dose ([2]; Day 7, 70 mg/kg bw diet, F): 0.679 ng/mL/mg/kg; Tmax ([2]; Day 7, 70 mg/kg bw diet, F): 0 h; AUC0-24h ([2]; Day 7, 70 mg/kg bw diet, M): 641 ng·h/mL; AUC0-24h/Dose ([2]; Day 7, 70 mg/kg bw diet, M): 10.2 ng·h/mL/mg/kg; Cmax ([2]; Day 7, 70 mg/kg bw diet, M): 32.8 ng/mL; Cmax/Dose ([2]; Day 7, 70 mg/kg bw diet, M): 0.522 ng/mL/mg/kg; Tmax ([2]; Day 7, 70 mg/kg bw diet, M): 6 h; AUC0-24h ([2]; Day 7, 70 mg/kg bw diet, M + F): 626 ng·h/mL; AUC0-24h/Dose ([2]; Day 7, 70 mg/kg bw diet, M + F): 9.77 ng·h/mL/mg/kg; Cmax ([2]; Day 7, 70 mg/kg bw diet, M + F): 34.3 ng/mL; Cmax/Dose ([2]; Day 7, 70 mg/kg bw diet, M + F): 0.535 ng/mL/mg/kg; Tmax ([2]; Day 7, 70 mg/kg bw diet, M + F): 12 h; F:M Ratio (AUC0-24h/Dose) ([2]; Day 7, 140 mg/kg bw): 1.48; AUC0-24h ([2]; Day 7, 140 mg/kg bw diet, F): 1640 ng·h/mL; AUC0-24h/Dose ([2]; Day 7, 140 mg/kg bw diet, F): 12.0 ng·h/mL/mg/kg; Cmax ([2]; Day 7, 140 mg/kg bw diet, F): 137 ng/mL; Cmax/Dose ([2]; Day 7, 140 mg/kg bw diet, F): 1.00 ng/mL/mg/kg; Tmax ([2]; Day 7, 140 mg/kg bw diet, F): 24 h; AUC0-24h ([2]; Day 7, 140 mg/kg bw diet, M): 1020 ng·h/mL; AUC0-24h/Dose ([2]; Day 7, 140 mg/kg bw diet, M): 8.16 ng·h/mL/mg/kg; Cmax ([2]; Day 7, 140 mg/kg bw diet, M): 57.0 ng/mL; Cmax/Dose ([2]; Day 7, 140 mg/kg bw diet, M): 0.456 ng/mL/mg/kg; Tmax ([2]; Day 7, 140 mg/kg bw diet, M): 6 h; AUC0-24h [2, 7]: 1330 ng·h/mL; AUC0-24h/Dose [2, 7]: 10.15 ng·h/mL/mg/kg; Cmax [2, 7]: 86.5 ng/mL; Cmax/Dose [2, 7]: 0.660 ng/mL/mg/kg; Tmax [2, 7]: 6 h; bioavailability of S8069 in 13-week study ([2]; Day 7, food ad-mix): 1.28–3.36%; F:M Ratio (AUC0-24h/Dose) ([2]; Day 91, 30 mg/kg bw): 0.828; AUC0-24h ([2]; Day 91, 30 mg/kg bw diet, F): 376 ng·h/mL; AUC0-24h/Dose ([2]; Day 91, 30 mg/kg bw diet, F): 12.3 ng·h/mL/mg/kg; Cmax ([2]; Day 91, 30 mg/kg bw diet, F): 58.8 ng/mL; Cmax/Dose ([2]; Day 91, 30 mg/kg bw diet, F): 1.93 ng/mL/mg/kg; Tmax ([2]; Day 91, 30 mg/kg bw diet, F): 6 h; AUC0-24h ([2]; Day 91, 30 mg/kg bw diet, M): 427 ng·h/mL; AUC0-24h/Dose ([2]; Day 91, 30 mg/kg bw diet, M): 14.9 ng·h/mL/mg/kg; Cmax ([2]; Day 91, 30 mg/kg bw diet, M): 35.8 ng/mL; Cmax/Dose ([2]; Day 91, 30 mg/kg bw diet, M): 1.25 ng/mL/mg/kg; Tmax ([2]; Day 91, 30 mg/kg bw diet, M): 6 h; AUC0-24h [2, 8]: 402 ng·h/mL; AUC0-24h/Dose [2, 8]: 13.6 ng·h/mL/mg/kg; Cmax [2, 8]: 47.3 ng/mL; Cmax/Dose [2, 8]: 1.60 ng/mL/mg/kg; Tmax [2, 8]: 6 h; F:M Ratio (AUC0-24h/Dose) ([2]; Day 91, 70 mg/kg bw): 0.703; AUC0-24h ([2]; Day 91, 70 mg/kg bw diet, F): 507 ng·h/mL; AUC0-24h/Dose ([2]; Day 91, 70 mg/kg bw diet, F): 7.67 ng·h/mL/mg/kg; Cmax ([2]; Day 91, 70 mg/kg bw diet, F): 27.8 ng/mL; Cmax/Dose ([2]; Day 91, 70 mg/kg bw diet, F): 0.421 ng/mL/mg/kg; Tmax ([2]; Day 91, 70 mg/kg bw diet, F): 0 h; AUC0-24h ([2]; Day 91, 70 mg/kg bw diet, M): 748 ng·h/mL; AUC0-24h/Dose ([2]; Day 91, 70 mg/kg bw diet, M): 10.9 ng·h/mL/mg/kg; Cmax ([2]; Day 91, 70 mg/kg bw diet, M): 60.4 ng/mL; Cmax/Dose ([2]; Day 91, 70 mg/kg bw diet, M): 0.880 ng/mL/mg/kg; Tmax ([2]; Day 91, 70 mg/kg bw diet, M): 3 h; AUC0-24h [2, 9]: 627 ng·h/mL; AUC0-24h/Dose [2, 9]: 9.32 ng·h/mL/mg/kg; Cmax [2, 9]: 40.0 ng/mL; Cmax/Dose [2, 9]: 0.594 ng/mL/mg/kg; Tmax [2, 9]: 3 h; F:M Ratio (AUC0-24h/Dose) ([2]; Day 91, 140 mg/kg bw): 0.248; AUC0-24h ([2]; Day 91, 140 mg/kg bw diet, F): 1120 ng·h/mL; AUC0-24h/Dose ([2]; Day 91, 140 mg/kg bw diet, F): 9.18 ng·h/mL/mg/kg; Cmax ([2]; Day 91, 140 mg/kg bw diet, F): 85.0 ng/mL; Cmax/Dose ([2]; Day 91, 140 mg/kg bw diet, F): 0.697 ng/mL/mg/kg; Tmax ([2]; Day 91, 140 mg/kg bw diet, F): 12 h; AUC0-24h ([2]; Day 91, 140 mg/kg bw diet, M): 4550 ng·h/mL; AUC0-24h/Dose ([2]; Day 91, 140 mg/kg bw diet, M): 37.0 ng·h/mL/mg/kg; Cmax ([2]; Day 91, 140 mg/kg bw diet, M): 358 ng/mL; Cmax/Dose ([2]; Day 91, 140 mg/kg bw diet, M): 2.91 ng/mL/mg/kg; Tmax ([2]; Day 91, 140 mg/kg bw diet, M): 12 h; AUC0-24h [2, 10]: 2840 ng·h/mL; AUC0-24h/Dose [2, 10]: 23.3 ng·h/mL/mg/kg; Cmax [2, 10]: 222 ng/mL; Cmax/Dose [2, 10]: 1.82 ng/mL/mg/kg; Tmax [2, 10]: 12 h; bioavailability of S8069 in 13-week study ([2]; Day 91, food ad-mix): 2.15–9.14%
